The source of these data is article PMC9501899 (Journal of the American Chemical Society, 2022).

In assay [1] the test system is mito-QC MEFs. Kind of assay: Mitophagy in mito-QC MEFs. It is filed as cell-based, mouse. As to conditions: 24 h treatment. The source says: Mitochondrial dysfunction is one of the pathophysiological hallmarks of PD[73] and can be rescued by mitophagy, a quality control mechanism whereby damaged or unnecessary mitochondria are delivered to lysosomes for degradation through membrane trafficking.[8] It has been shown that increasing mitophagy with inducer agents has the potential as a PD therapy.[74] Previous studies have shown that the LRRK2 kinase activity impairs basal mitophagy and that LRRK2 knockout or pharmacological inhibition of LRRK2 with kinase inhibitors was able to rescue the mitophagy level.[8]
Data are represented as mean ± SEM from three to five independent experiments.
Immortalized mito-QC MEFs[8],[93] were maintained in DMEM (Gibco, 11960–044) supplemented with 10% FBS, 2 mM L-glutamine (Gibco, 2503-081), 1% Na-pyruvate (Gibco, 11360-070), 1% nonessential amino acids (Gibco, 11140–035), and 1% antibiotics (penicillin/streptomycin, 100 U/mL penicillin and 100 μg/mL streptomycin; Gibco) at 37 °C under a humidified 5% CO2 atmosphere. […] Quantification of red-only dots was semiautomatized using the mito-QC counter plugin on FIJI, as previously described,[8],[94] using the following parameters: radius for smoothing images = 2, ratio threshold = 1.5, and red channel threshold = mean + 1 SD. […]

The subject of assay [2] is pRab10. The experiment in a line: Rab10 dephosphorylation in R1441C LRRK2 MEFs. The format is cell-based. As to conditions: Mus musculus, 4 h, read-out: EC50s (pRab10). The source says: Primary MEFs were generated as described in a previous study.[80] Briefly, the uterine horn was collected from adult female mice at day E12.5 and transferred to a 10 cm tissue culture dish containing cold PBS. Two forceps were used to tear the yolk sacs to isolate each embryo. Forceps were cleaned thoroughly with 70% ethanol between each embryo isolation. The embryos were culled, and a tissue piece was collected in a polymerase chain reaction (PCR) tube for genotyping. The red tissue of the embryo was removed, and the remainder was minced with a scalpel blade and incubated with a 7.5 mL trypsin–ethylenediaminetetraacetic acid (EDTA) solution for 10 min in a 37 °C, 5% CO2 tissue culture incubator. The dish was removed from the incubator and checked under a light microscope for single cells. Complete media (7.5 mL) was added to the trypsinized cells, and the cell suspension was transferred to a 15 mL Falcon tube and centrifuged at 1200 rpm for 5 min at room temperature. […]
Culturing and passaging of adherent cell lines were carried out using an aseptic technique in CL1 or CL2 (for PBMC isolation) biological safety cabinets. […] The cell pellet was discarded, and the supernatant was collected for analysis by quantitative immunoblotting. […] Protein concentrations of cell lysates were determined using the Bradford assay. […]

For the compound `CNc1nc(Nc2ccc(C(=O)N3CCN(C[C@H]4CC[C@H](CSC(C)(C)[C@H](NC(=O)C5(F)CC5)C(=O)N5C[C@H](O)CC5C(=O)NCc5ccc(-c6scnc6C)cc5)CC4)CC3)cc2OC)ncc1Cl` (stereo partly drawn) [XL01126, (2S,4R)-1-((R)-3-((((1R,4R)-4-((4-(4-((5-Chloro-4-(methylamino)pyrimidin-2-yl)amino)-3-methoxybenzoyl)piperazin-1-yl)methyl)cyclohexyl)methyl)thio)-2-(1-fluorocyclopropane-1-carboxamido)-3-methylbutanoyl)-4-hydroxy-N-(4-(4-methylthiazol-5-yl)benzyl)pyrrolidine-2-carboxamide], the “mitophagy level (in words)” value in assay [1] was “induced the mitophagy level dose-dependently”. Also, the EC50 in assay [2] was found to be 30 nM.

As to `CNc1nc(Nc2ccc(C(=O)N3CCN(C[C@H]4CC[C@H](CSC(C)(C)[C@H](NC(=O)C5(F)CC5)C(=O)N5C[C@@H](O)C[C@H]5C(=O)NCc5ccc(-c6scnc6C)cc5)CC4)CC3)cc2OC)ncc1Cl` [cis-XL01126, (2S,4S)-1-((R)-3-((((1R,4R)-4-((4-(4-((5-Chloro-4-(methylamino)pyrimidin-2-yl)amino)-3-methoxybenzoyl)piperazin-1-yl)methyl)cyclohexyl)methyl)thio)-2-(1-fluorocyclopropane-1-carboxamido)-3-methylbutanoyl)-4-hydroxy-N-(4-(4-methylthiazol-5-yl)benzyl)pyrrolidine-2-carboxamide], in assay [1], the “mitophagy level (in words)” value was “induced the mitophagy level dose-dependently”. Besides, the EC50 in assay [2] was determined as 158 nM.
